Measured values taken from patent US20210299079A1, “MONOMETHYL FUMARATE-CARRIER CONJUGATES AND METHODS OF THEIR USE” (Flagship Pioneering Innovations V, Inc., priority 2018, published 2021).
Structures can show the parent of a compound that is named as a salt.

Tests used:
Assay type in all cases: in vitro ADME
[1] = In vitro Colonic Material Stability Assay; details: colonic material slurry in YCFAC media, anaerobic, 1 or 10 μM
Experimental: Assay 3. In vitro Colonic Material Stability Assay. This assay was used to assess the stability of a conjugate in a large intestine. All experiments were performed in an anaerobic chamber containing 90% nitrogen, 5% hydrogen and 5% carbon dioxide. Colonic material was resuspended as a slurry (15% w/v final concentration) in pre-reduced, anaerobically sterilized dilution blanks (Anaerobe Systems AS-908). The colonic material was then inoculated into 96 well plates containing YCFAC media (Anaerobe Systems AS-680) or other suitable media (6.7 μL slurry into 1 mL total media). Compounds or groups of compounds were added to each individual well to reach a final analyte concentration of 1 or 10 μM, and the material was mixed by pipetting. Sample was removed after set timepoints (0, 120, 240, 480, 1440, 2880 minutes after initiation of the assay), quenched with acetonitrile containing internal standard, and analyzed by LC/MS.

[2] = Stability of conjugates in Simulated Gastric Fluid (SGF); details: SGF pH 1.6 with pepsin, 37° C., 1 μM compound
Experimental: Assay 1. Stability of conjugates in Simulated Gastric Fluid (SGF). This assay was used to assess the stability of a conjugate in a stomach.
Medium was prepared by dissolving 2 g of sodium chloride in 0.6 L in ultrapure water (MilliQ®, Millipore Sigma, Darmstadt, Germany). The pH was adjusted to 1.6 with 1N hydrochloric acid, and the volume was then adjusted to 1 L with purified water.
60 mg FaSSIF powder (Biorelevant™, London, UK) were dissolved in 500 mL buffer (above). Pepsin was added (0.1 mg/mL) (Millipore Sigma, Darmstadt, Germany), and the solution was stirred. The resulting SGF media were used fresh for each experiment.
(§1) Test compounds were dissolved in DMSO stock to 1 mM. An aliquot of the DMSO stock solution was removed and diluted in the SGF Media in 15 mL falcon tubes to generate a total compound concentration of 1 μM. A 1 mL aliquot was immediately removed and diluted once with 1 volume of acetonitrile for TO timepoint. The mixture was sealed and mixed at 37° C. in an incubator. Aliquots (1 mL) were removed at regular intervals and immediately quenched by the addition of 1 volume of acetonitrile. The resulting samples were analyzed by LC/MS to determine degradation rates in SGF.

[3] = Stability of conjugates in Simulated Intestinal Fluid (SIF); details: SIF pH 6.7 with pancreatin, 37° C., 1 μM compound
Experimental: Assay 2. Stability of conjugates in Simulated Intestinal Fluid (SIF). This assay was used to assess the stability of a conjugate in a small intestine.
Phosphate buffer was prepared by dissolving 0.42 g of sodium hydroxide pellets and 3.95 g of monobasic sodium phosphate monohydrate and 6.19 g of sodium chloride in ultrapure water (MilliQ®, Millipore Sigma, Darmstadt, Germany). The pH was adjusted to 6.7 using aq. HCl and aq. NaOH, as necessary, and the solution was diluted with ultrapure water to produce 1 L of the pH 6.7 buffer.
112 mg FaSSIF powder (Biorelevant™, London, UK) was dissolved in 50 mL of the pH 6.7 buffer. 2 to 3 mL of the resulting solution were then added to 500 mg pancreatin (Millipore Sigma, Darmstadt, Germany). The resulting mixture was agitated by finger tapping the vessel containing the mixture until milky suspension formed. At this time, the remainder of the 50 mL FaSSiF/pH 6.7 buffer solution was added. The resulting suspension was flipped upside down 10 times to produce SIF, which was used fresh.
as §1, with “SIF media” for “SGF Media”, “produce” for “generate”, “mixture with a tested” for “total”, “agitated” for “mixed”, “rates” for “rates in SGF.”

Structure (SMILES) | Assay 3 (% Remaining at 24 h) [1] | Assay 1 (SGF) (% Remaining @ 1 hour) [2] | Assay 2 (SIF) (% @ Remaining 4 hours) [3]
CCCC(=O)O[C@@H]1[C@@H](OC(=O)CCC)[C@@H](OC(=O)/C=C/C(=O)OC)OC[C@H]1OC(=O)CCC [Compound 8, Methyl ((2R,3R,4S,5R)-3,4,5-tris(butyryloxy)tetrahydro-2H-pyran-2-yl) fumarate] | C (C: >75% of the tested compound remaining) | C (C: >75% of the tested compound remaining) | A (A: <25% of the tested compound remaining)
CCC(=O)O[C@H]1[C@@H](OC(=O)/C=C/C(=O)OC)OC[C@@H](OC(=O)CC)[C@H]1OC(=O)CC [Compound 9, Methyl ((2R,3R,4R,5R)-3,4,5-tris(propionyloxy)tetrahydro-2H-pyran-2-yl) fumarate] | C (C: >75% of the tested compound remaining) | C (C: >75% of the tested compound remaining) | A (A: <25% of the tested compound remaining)
CCCC(=O)OC[C@H]1O[C@@H](OC(=O)/C=C/C(=O)OC)[C@H](OC(=O)CCC)[C@@H](OC(=O)CCC)[C@@H]1OC(=O)CCC [Compound 10, Methyl ((2S,3R,4S,5R,6R)-3,4,5-tris(butyryloxy)-6-((butyryloxy)methyl)tetrahydro-2H-pyran-2-yl) fumarate] | B (B: 25-75% of the tested compound remaining) | B (B: 25-75% of the tested compound remaining) | B (B: 25-75% of the tested compound remaining)
CCCC(=O)OC[C@H]1O[C@H](OC(=O)/C=C/C(=O)OC)[C@H](OC(=O)CCC)[C@@H](OC(=O)CCC)[C@@H]1OC(=O)CCC [Compound 11, Methyl ((2R,3R,4S,5R,6R)-3,4,5-tris(butyryloxy)-6-((butyryloxy)methyl)tetrahydro-2H-pyran-2-yl) fumarate] | B (B: 25-75% of the tested compound remaining) | B (B: 25-75% of the tested compound remaining) | B (B: 25-75% of the tested compound remaining)
CCCC(=O)O[C@@H]1[C@@H](OC(=O)CCC)[C@@H](OC(=O)/C=C/C(=O)OC)OC[C@@H]1OC(=O)CCC [Compound 12, Methyl ((2R,3R,4S,5S)-3,4,5-tris(butyryloxy)tetrahydro-2H-pyran-2-yl) fumarate] | C (C: >75% of the tested compound remaining) | C (C: >75% of the tested compound remaining) | A (A: <25% of the tested compound remaining)
CCCC(=O)O[C@H]1[C@H](OC(=O)CCC)[C@H](OC(=O)/C=C/C(=O)OC)O[C@@H](C)[C@H]1OC(=O)CCC [Compound 13, Methyl ((2S,3S,4R,5R,6S)-3,4,5-tris(butyryloxy)-6-methyltetrahydro-2H-pyran-2-yl) fumarate] | C (C: >75% of the tested compound remaining) | B (B: 25-75% of the tested compound remaining) | A (A: <25% of the tested compound remaining)
CCCC(=O)O[C@@H]1[C@@H](OC(=O)CCC)[C@H](C)O[C@H](OC(=O)/C=C/C(=O)OC)[C@@H]1OC(=O)CCC [Compound 14, Methyl ((2R,3R,4R,5S,6S)-3,4,5-tris(butyryloxy)-6-methyltetrahydro-2H-pyran-2-yl) fumarate] | C (C: >75% of the tested compound remaining) | C (C: >75% of the tested compound remaining) | A (A: <25% of the tested compound remaining)
CCCC(=O)O[C@@H]1O[C@H](COC(=O)/C=C/C(=O)OC)[C@@H](OC(=O)CCC)[C@H](OC(=O)CCC)[C@H]1OC(=O)CCC [Compound 23, Methyl (((2R,3R,4S,5R,6S)-3,4,5,6-tetrakis(butyryloxy)tetrahydro-2H-pyran-2-yl)methyl) fumarate] | A (A: <25% of the tested compound remaining) | B (B: 25-75% of the tested compound remaining) | A (A: <25% of the tested compound remaining)
CCCC(=O)O[C@@H]1[C@@H](OC(=O)CCC)[C@H](OC(=O)/C=C/C(=O)OC)OC[C@@H]1OC(=O)CCC [Compound 36, 1-methyl (2S,3R,4S,5S)-3,4,5-tris(butanoyloxy)oxan-2-yl (2E)-but-2-enedioate] | C (C: >75% of the tested compound remaining) | C (C: >75% of the tested compound remaining) | A (A: <25% of the tested compound remaining)
CCCC(=O)O[C@@H]1[C@@H](OC(=O)CCC)[C@H](OC(=O)/C=C/C(=O)OC)O[C@H](CO)[C@H]1OC(=O)CCC [Compound 38, 1-methyl (2S,3R,4S,5R,6R)-3,4,5-tris(butanoyloxy)-6-(hydroxymethyl)oxan-2-yl (2E)-but-2-enedioate] | A (A: <25% of the tested compound remaining) | C (C: >75% of the tested compound remaining) | A (A: <25% of the tested compound remaining)
CCCC(=O)O[C@@H]1[C@@H](OC(=O)CCC)[C@@H](OC(=O)/C=C/C(=O)OC)O[C@H](CO)[C@H]1OC(=O)CCC [Compound 39, 1-methyl (2R,3R,4S,5R,6R)-3,4,5-tris(butanoyloxy)-6-(hydroxymethyl)oxan-2-yl (2E)-but-2-enedioate] | A (A: <25% of the tested compound remaining) | C (C: >75% of the tested compound remaining) | A (A: <25% of the tested compound remaining)
CCCC(=O)O[C@H]1O[C@H](COC(=O)/C=C/C(=O)OC)[C@@H](OC(=O)CCC)[C@H](OC(=O)CCC)[C@H]1OC(=O)CCC [Compound 40, 1-methyl 4-[(2R,3R,4S,5R,6R)-3,4,5,6-tetrakis(butanoyloxy)oxan-2-yl]methyl (2E)-but-2-enedioate] | A (A: <25% of the tested compound remaining) | B (B: 25-75% of the tested compound remaining) | A (A: <25% of the tested compound remaining)
